Measured values from patent publication US10233186B2, “Inhibitors of activin receptor-like kinase” (BLUEPRINT MEDICINES CORPORATION, priority 2016, dated 2019).

Experiments:
human ALK2 R206H = molecular target: T1, human ALK2 R206H (Homo sapiens, UniProt Q04771, R206H); experiment: Cell-based ALK2-R206H cell activity assay (Smad1-Ser463/Ser465 phosphorylation by AlphaLISA in HEK293-ALK2-R206H cells); settings: read-out: Cell Line (Cell Assay IC50)
T1 construct: expressed in transfected cells; host or cells: HEK293 (ATCC CRL1573), lentivirus transduction, blasticidin selection
T1 sequence (Q04771 21-509 R206H): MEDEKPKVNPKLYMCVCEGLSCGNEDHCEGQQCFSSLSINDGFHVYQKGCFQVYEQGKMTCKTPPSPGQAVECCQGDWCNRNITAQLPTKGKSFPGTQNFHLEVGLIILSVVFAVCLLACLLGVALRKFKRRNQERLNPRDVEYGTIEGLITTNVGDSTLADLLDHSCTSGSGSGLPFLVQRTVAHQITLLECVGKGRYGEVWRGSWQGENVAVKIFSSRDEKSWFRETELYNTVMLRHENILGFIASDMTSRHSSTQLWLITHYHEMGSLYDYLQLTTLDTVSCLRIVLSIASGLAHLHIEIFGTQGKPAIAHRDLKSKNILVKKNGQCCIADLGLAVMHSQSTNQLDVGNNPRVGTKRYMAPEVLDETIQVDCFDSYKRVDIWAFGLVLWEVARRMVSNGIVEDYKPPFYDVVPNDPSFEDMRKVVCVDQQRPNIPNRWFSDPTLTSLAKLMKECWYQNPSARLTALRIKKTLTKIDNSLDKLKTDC
Summary of the method: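 Stable HEK293 cells expressing C-terminally FLAG-tagged human ALK2 R206H (lentiviral, blasticidin-selected) were treated with compounds in 10-point, 3-fold dilutions from 10 μM or 1 μM top, in duplicate. Smad1 Ser463/Ser465 phosphorylation was read by AlphaLISA.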

[1] = molecular target: T2, ALK2 R206H (GST-tagged mutant ALK2) (Homo sapiens, UniProt Q04771, R206H); experiment: ALK binding assay (LANTHASCREEN TR-FRET competitive binding, displacement of Kinase Tracer 178); settings: ALK2 R206H, LANTHASCREEN TR-FRET competitive binding; read-out: Binding Assay (IC50)
T2 construct: purchased Carna Bioscience or ThermoFisher 09-148 or PV6232
T2 sequence (Q04771 21-509 R206H): T1 sequence (Q04771 21-509 R206H)

| SMILES | IC50 (human ALK2 R206H) | IC50 [1] |
| --- | --- | --- |
| CC(C)NC(=O)N1CCN(c2ccnn3cc(-c4ccc(C5CCCN5)cn4)cc23)CC1 (stereo not drawn) [Compound 465] | 0.1 to 0.5 µM | < 0.01 µM |
| CC(C)NC(C)(C)c1ccc(-c2cc3c(N4CCN(C(=O)C5CC5)CC4)ccnn3c2)cc1 [Compound 473] | < 0.1 µM | < 0.01 µM |
| O=C(C1CC1)N1CCN(c2ccnn3cc(-c4ccc(C5(F)CCNCC5)cc4)cc23)CC1 [Compound 474] | 0.1 to 0.5 µM | < 0.01 µM |
| O=C(OC1COC1)N1CCN(c2ccnn3cc(-c4ccc([C@H]5CCCN5)cn4)cc23)CC1 [Compound 477] | < 0.1 µM | < 0.01 µM |
| CCOC(=O)N1CCN(c2ccnn3cc(-c4ccc([C@]5(F)CCCNC5)cc4)cc23)CC1 [Compound 479] | < 0.1 µM | < 0.01 µM |
| O=C(C1CC1)N1CCN(c2ccnn3cc(-c4ccc(C56CCN(CC5)CC6)cc4)cc23)CC1 [Compound 482] | < 0.1 µM | < 0.01 µM |
| CC(C)N1CCC[C@H]1c1ccc(-c2cc3c(N4CCN(C(=O)C5CC5)CC4)ccnn3c2)cn1 [Compound 484] | < 0.1 µM | < 0.01 µM |
| CC(C)N1CC[C@@H](c2ccc(-c3cc4c(N5CCN(C(=O)C6CC6)CC5)ccnn4c3)nc2)C1 [Compound 485] | < 0.1 µM | < 0.01 µM |
| CC(C)N1CC[C@H](c2ccc(-c3cc4c(N5CCN(C(=O)C6CC6)CC5)ccnn4c3)nc2)C1 [Compound 486] | < 0.1 µM | < 0.01 µM |
| COC1(c2ccc(-c3cc4c(N5CCN(C(=O)C6CC6)CC5)ccnn4c3)cc2)CCNCC1 [Compound 488] | < 0.1 µM | < 0.01 µM |
| COC1(c2ccc(-c3cc4c(N5CCN(C(=O)C6CC6)CC5)ccnn4c3)nc2)CCNCC1 [Compound 491] | < 0.1 µM | < 0.01 µM |
| CCNC(=O)N1CCN(c2ccnn3cc(-c4ccc([C@H]5CCN(C(C)C)C5)cn4)cc23)CC1 [Compound 496] | < 0.1 µM | < 0.01 µM |
| CCNC(=O)N1CCN(c2ccnn3cc(-c4ccc([C@H]5CCCN5C(C)C)nc4)cc23)CC1 [Compound 497] | < 0.1 µM | < 0.01 µM |
| N#C[C@H]1C[C@H](C(=O)N2CCN(c3ccnn4cc(-c5ccc([C@@H]6CCCNC6)cn5)cc34)CC2)C1 [Compound 500] | 0.1 to 0.5 µM | < 0.01 µM |
| O=C(C1CC1)N1CCN(c2ccnn3cc(-c4ccc(C5(O)CN6CCC5CC6)cc4)cc23)CC1 (stereo not drawn) [Compound 501] | 0.1 to 0.5 µM | < 0.01 µM |
| CC(C)NC(=O)N1CCN(c2ccnn3cc(-c4ccc(C5(C#N)CCNCC5)cc4)cc23)CC1 [Compound 502] | < 0.1 µM | < 0.01 µM |
| Cc1cc(-c2cc3c(N4CCN(C(=O)C5CC5)CC4)ccnn3c2)ccc1[C@@H]1CCN(C(C)C)C1 [Compound 503] | 0.1 to 0.5 µM | < 0.01 µM |
| CC(C)N1C[C@@H](c2ccc(-c3cc4c(N5CCN(C(=O)C6CC6)CC5)ccnn4c3)cc2)C[C@H]1C [Compound 505] | < 0.1 µM | < 0.01 µM |
| CC(C)N1C[C@H](c2ccc(-c3cc4c(N5CCN(C(=O)C6CC6)CC5)ccnn4c3)cc2)C[C@@H]1C [Compound 507] | < 0.1 µM | < 0.01 µM |
| CC(C)N1CCC[C@]1(C)c1ccc(-c2cc3c(N4CCN(C(=O)C5CC5)CC4)ccnn3c2)cc1 [Compound 510] | < 0.1 µM | < 0.01 µM |
| N#C[C@@H]1C[C@H]1C(=O)N1CCN(c2ccnn3cc(-c4ccc([C@@]5(F)CCCNC5)cc4)cc23)CC1 [Compound 514] | < 0.1 µM | < 0.01 µM |
| CC(C)NC(=O)N1CCN(c2ccnn3cc(-c4ccc(C56CCN(CC5)CC6)cc4)cc23)CC1 [Compound 519] | < 0.1 µM | < 0.01 µM |
| CC(C)N1CCOCC1c1ccc(-c2cc3c(N4CCN(C(=O)C5CC5)CC4)ccnn3c2)cc1 (stereo not drawn) [Compound 520] | < 0.1 µM | < 0.01 µM |

Further lines, results first:

| IC50 (human ALK2 R206H) | IC50 [1] | SMILES |
| --- | --- | --- |
| < 0.1 µM | < 0.01 µM | O=C(C1CC1)N1CCN(c2ccnn3cc(-c4ccc(C5COCCN5)cc4)cc23)CC1 (stereo not drawn) [Compound 464] |
| < 0.1 µM | < 0.01 µM | CC(C)NC(=O)N1CCN(c2ccnn3cc(-c4ccc([C@@H]5CCCN5)cn4)cc23)CC1 [Compound 466] |
| 0.1 to 0.5 µM | < 0.01 µM | CC(C)NC(=O)N1CCN(c2ccnn3cc(-c4ccc([C@H]5CCCN5)cn4)cc23)CC1 [Compound 467] |
| < 0.1 µM | < 0.01 µM | CCOC(=O)N1CCN(c2ccnn3cc(-c4ccc(C5COCCN5)cc4)cc23)CC1 (stereo not drawn) [Compound 468] |
| < 0.1 µM | < 0.01 µM | CC(C)NC(=O)N1CCN(c2ccnn3cc(-c4cnn([C@@H]5CCCNC5)c4)cc23)CC1 [Compound 469] |
| < 0.1 µM | < 0.01 µM | CC(C)NC(=O)N1CCN(c2ccnn3cc(-c4cnn([C@H]5CCCNC5)c4)cc23)CC1 [Compound 470] |
| < 0.1 µM | < 0.01 µM | O=C(OC1COC1)N1CCN(c2ccnn3cc(-c4ccc(C5CCCN5)cn4)cc23)CC1 (stereo not drawn) [Compound 475] |
| < 0.1 µM | < 0.01 µM | O=C(OC1COC1)N1CCN(c2ccnn3cc(-c4ccc([C@@H]5CCCN5)cn4)cc23)CC1 [Compound 476] |
| < 0.1 µM | < 0.01 µM | CC(C)NC(=O)N1CCN(c2ccnn3cc(-c4ccc(C5COCCN5)cc4)cc23)CC1 (stereo not drawn) [Compound 478] |
| < 0.1 µM | < 0.01 µM | CCOC(=O)N1CCN(c2ccnn3cc(-c4ccc([C@@]5(F)CCCNC5)cc4)cc23)CC1 [Compound 480] |
| < 0.1 µM | < 0.01 µM | N#CC1(c2ccc(-c3cc4c(N5CCN(C(=O)C6CC6)CC5)ccnn4c3)cc2)CCNCC1 [Compound 481] |
| < 0.1 µM | < 0.01 µM | CCOC(=O)N1CCN(c2ccnn3cc(-c4ccc(C5(C#N)CCNCC5)cc4)cc23)CC1 [Compound 483] |
| < 0.1 µM | < 0.01 µM | CC(C)N1CCC[C@@H]1c1ccc(-c2cc3c(N4CCN(C(=O)C5CC5)CC4)ccnn3c2)cn1 [Compound 487] |
| < 0.1 µM | < 0.01 µM | CO[C@]1(c2ccc(-c3cc4c(N5CCN(C(=O)C6CC6)CC5)ccnn4c3)cc2)CCCNC1 [Compound 489] |
| < 0.1 µM | < 0.01 µM | CO[C@@]1(c2ccc(-c3cc4c(N5CCN(C(=O)C6CC6)CC5)ccnn4c3)cc2)CCCNC1 [Compound 490] |
| < 0.1 µM | < 0.01 µM | CC(C)NC(=O)N1CCN(c2ccnn3cc(-c4ccc(C5(C)CCNCC5)cc4)cc23)CC1 [Compound 492] |

| IC50 (human ALK2 R206H) | IC50 [1] | SMILES |
| --- | --- | --- |
| < 0.1 µM | < 0.01 µM | CC(C)NC(C)(CO)c1ccc(-c2cc3c(N4CCN(C(=O)C5CC5)CC4)ccnn3c2)cc1 (stereo not drawn) [Compound 493] |
| < 0.1 µM | < 0.01 µM | CCNC(=O)N1CCN(c2ccnn3cc(-c4ccc([C@@H]5CCCN5C(C)C)nc4)cc23)CC1 [Compound 494] |
| < 0.1 µM | < 0.01 µM | CCNC(=O)N1CCN(c2ccnn3cc(-c4ccc([C@@H]5CCN(C(C)C)C5)cn4)cc23)CC1 [Compound 495] |
| < 0.1 µM | < 0.01 µM | CCOC(=O)N1CCN(c2ccnn3cc(-c4ccc(C5(OC)CCNCC5)cc4)cc23)CC1 [Compound 498] |
| 0.1 to 0.5 µM | < 0.01 µM | CC(C)NC(=O)N1CCN(c2ccnn3cc(-c4ccc(C5(F)CCNCC5)cc4)cc23)CC1 [Compound 499] |
| 0.1 to 0.5 µM | < 0.01 µM | Cc1cc(-c2cc3c(N4CCN(C(=O)C5CC5)CC4)ccnn3c2)ccc1[C@H]1CCN(C(C)C)C1 [Compound 504] |
| 0.1 to 0.5 µM | < 0.01 µM | CC(C)N1C[C@@H](c2ccc(-c3cc4c(N5CCN(C(=O)C6CC6)CC5)ccnn4c3)cc2)C[C@@H]1C [Compound 508] |
| < 0.1 µM | < 0.01 µM | CC(C)N1CCC[C@@]1(C)c1ccc(-c2cc3c(N4CCN(C(=O)C5CC5)CC4)ccnn3c2)cc1 [Compound 509] |
| < 0.1 µM | < 0.01 µM | N#C[C@H]1C[C@@H]1C(=O)N1CCN(c2ccnn3cc(-c4ccc([C@]5(F)CCCNC5)cc4)cc23)CC1 [Compound 511] |
| < 0.1 µM | < 0.01 µM | N#C[C@@H]1C[C@H]1C(=O)N1CCN(c2ccnn3cc(-c4ccc([C@]5(F)CCCNC5)cc4)cc23)CC1 [Compound 512] |
| < 0.1 µM | < 0.01 µM | N#C[C@H]1C[C@@H]1C(=O)N1CCN(c2ccnn3cc(-c4ccc([C@@]5(F)CCCNC5)cc4)cc23)CC1 [Compound 513] |
| < 0.1 µM | < 0.01 µM | O=C(C1CC1)N1CCN(c2ccnn3cc(-c4ccc(C5CN6CCSC6=N5)cc4)cc23)CC1 (stereo not drawn) [Compound 515] |
| < 0.1 µM | < 0.01 µM | CC(C)N1CCNC(c2ccc(-c3cc4c(N5CCN(C(=O)C6CC6)CC5)ccnn4c3)cc2)C1 (stereo not drawn) [Compound 516] |
| < 0.1 µM | < 0.01 µM | CC(C)N1CCN[C@H](c2ccc(-c3cc4c(N5CCN(C(=O)C6CC6)CC5)ccnn4c3)cc2)C1 [Compound 517] |
| < 0.1 µM | < 0.01 µM | CC(C)N1CCN[C@@H](c2ccc(-c3cc4c(N5CCN(C(=O)C6CC6)CC5)ccnn4c3)cc2)C1 [Compound 518] |
